Legend:
[1] = system: ABUTH (Abutilon theophrasti); test: Postemergence herbicidal evaluation; type: in vivo, Medic.; settings: postemergence
Summary of the method: (§1)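 Visual 0–9 injury scores versus control plants, covering stand, vigour, malformation, size, chlorosis and general appearance, taken four to five weeks post-spray and averaged over replicate tests. Plants were sprayed at roughly two weeks old and held on greenhouse benches.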

[2] = system: AMBEL (Ambrosia artemisifolia); test: Postemergence herbicidal evaluation; type: in vivo, L.; settings: postemergence
Summary of the method: as §1

[3] = system: CASOB (Cassia obtusifolia); test: Postemergence herbicidal evaluation; type: in vivo, L.; settings: postemergence
Summary of the method: as §1

[4] = system: CHEAL (Chenopodium album); test: Postemergence herbicidal evaluation; type: in vivo, L.; settings: postemergence
Summary of the method: as §1

[5] = system: IPOHE (Ipomoea hederacea); test: Postemergence herbicidal evaluation; type: in vivo, (L.) Jacq.; settings: postemergence
Summary of the method: as §1

[6] = system: GLXMAW (Soybean, Williams); test: Postemergence herbicidal evaluation; type: in vivo, Glycine max, (L.) Merr. cv Williams; settings: postemergence
Summary of the method: as §1

[7] = system: ORYSAT (Rice, Tebonnet); test: Postemergence herbicidal evaluation; type: in vivo, Oryza sativa, (L.) Tebonnet; settings: postemergence
Summary of the method: as §1

[8] = system: ABUTH (Abutilon theophrasti); test: Preemergence herbicidal evaluation; type: in vivo, Medic.; settings: rated 4-5 weeks after treatment
[9] = system: AMBEL (Ambrosia artemisifolia); test: Preemergence herbicidal evaluation; type: in vivo, L.; settings: rated 4-5 weeks after treatment
Summary of the method: (§2)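 Rating 0–9, visual, vs control; 4–5 wk after spraying seeded cups with compound in aq. acetone; conventional greenhouse care.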

[10] = system: CASOB (Cassia obtusifolia); test: Preemergence herbicidal evaluation; type: in vivo, L.; settings: rated 4-5 weeks after treatment
Summary of the method: as §2

[11] = system: CHEAL (Chenopodium album); test: Preemergence herbicidal evaluation; type: in vivo, L.; settings: rated 4-5 weeks after treatment
Summary of the method: as §2

[12] = system: IPOHE (Ipomoea hederacea); test: Preemergence herbicidal evaluation; type: in vivo, (L.) Jacq.; settings: rated 4-5 weeks after treatment
[13] = system: ECHCG (Echinochloa crus-galli); test: Preemergence herbicidal evaluation; type: in vivo, (L.) Beau; settings: rated 4-5 weeks after treatment
Summary of the method: as §2

[14] = system: SETVI (Setaria viridis); test: Preemergence herbicidal evaluation; type: in vivo, (L.) Beau; settings: rated 4-5 weeks after treatment
Summary of the method: as §2

[15] = system: GLXMAW (Soybean, Williams); test: Preemergence herbicidal evaluation; type: in vivo, Glycine max, (L.) Merr. cv Williams; settings: rated 4-5 weeks after treatment
[16] = system: TRZAWR (Wheat, Winter, cv Riband); test: Preemergence herbicidal evaluation; type: in vivo, Triticum aestivum; settings: rated 4-5 weeks after treatment
Summary of the method: as §2

[17] = system: ZEAMX (Corn, Field); test: Preemergence herbicidal evaluation; type: in vivo, Zea mays, L.; settings: rated 4-5 weeks after treatment
[18] = system: CYPIR (Cyperus iria); test: Flooded paddy, preemergence weed control; type: in vivo; settings: rated 3-4 weeks after treatment, 0-9 rating scale
Summary of the method: (§3)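 Scoring used a 0-9 visual scale relative to control. Before that, seeds or propagules were planted shallowly in silt loam and flooded to 1.5–3 cm, a depth maintained throughout, with greenhouse care during the test.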

[19] = system: MOOVA (Monochoria vaginalis); test: Flooded paddy, preemergence weed control; type: in vivo, Presl.; settings: rated 3-4 weeks after treatment, 0-9 rating scale
Summary of the method: as §3

[20] = system: ORYSAT (Rice, Tebonnet); test: Flooded paddy, post-transplant rice tolerance; type: in vivo, Oryza sativa, (L.) Tebonnet; settings: flooded paddy, post-transplant rice, rated 3-4 weeks after treatment, 0-9 rating scale
Summary of the method: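 Scores (0-9) reflect visual injury relative to untreated plants in flooded silt loam. Each pot held two transplanted ten-day-old seedlings under 1.5 to 3 cm standing water in the greenhouse.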

For `Cn1c(C(F)(F)F)cc(=O)n(-c2ccc3snc(C4=NCCO4)c3c2)c1=O` [Compound 75, 1-methyl-3-[3(2-oxazolin-2-yl)-1,2-benzisothiazol-5-yl]-6-(trifluoromethyl)uracil], the ABUTH herbicidal rating ([1]; rate 0.0320 kg/ha) was 9.0, the ABUTH herbicidal rating ([1]; rate 0.0620 kg/ha) was 9.0 and the AMBEL herbicidal rating ([2]; rate 0.0320 kg/ha) was 9.0. For the same molecule, the AMBEL herbicidal rating ([2]; rate 0.0620 kg/ha) was 9.0, the CASOB herbicidal rating ([3]; rate 0.0320 kg/ha) was 2.0 and the CASOB herbicidal rating ([3]; rate 0.0620 kg/ha) was 2.0. The CHEAL herbicidal rating ([4]; rate 0.0320 kg/ha) was 7.0, the CHEAL herbicidal rating ([4]; rate 0.0620 kg/ha) was 7.0 and the IPOHE herbicidal rating ([5]; rate 0.0320 kg/ha) was 9.0. For the same molecule, the IPOHE herbicidal rating ([5]; rate 0.0620 kg/ha) was 9.0, the GLXMAW herbicidal rating ([6]; rate 0.0320 kg/ha) was 5.5 and the GLXMAW herbicidal rating ([6]; rate 0.0620 kg/ha) was 7.0. For the same molecule, the ORYSAT herbicidal rating ([7]; rate 0.0320 kg/ha) was 2.5, the ORYSAT herbicidal rating ([7]; rate 0.0620 kg/ha) was 3.5 and the “Preemergence herbicidal rating ABUTH” value ([8]; Rate 0.0620 kg/ha) was 1.0. For the same molecule, the “Preemergence herbicidal rating ABUTH” value ([8]; Rate 0.1250 kg/ha) was 1.0, the “Preemergence herbicidal rating ABUTH” value ([8]; Rate 0.2500 kg/ha) was 9.0 and the “Preemergence herbicidal rating AMBEL” value ([9]; Rate 0.0620 kg/ha) was 1.0. The “Preemergence herbicidal rating AMBEL” value ([9]; Rate 0.1250 kg/ha) was 3.0, the “Preemergence herbicidal rating AMBEL” value ([9]; Rate 0.2500 kg/ha) was 7.0 and the “Preemergence herbicidal rating CASOB” value ([10]; Rate 0.0620 kg/ha) was 0.0. For the same molecule, the “Preemergence herbicidal rating CASOB” value ([10]; Rate 0.1250 kg/ha) was 1.0, the “Preemergence herbicidal rating CASOB” value ([10]; Rate 0.2500 kg/ha) was 1.0 and the “Preemergence herbicidal rating CHEAL” value ([11]; Rate 0.0620 kg/ha) was 9.0. For the same molecule, the “Preemergence herbicidal rating CHEAL” value ([11]; Rate 0.1250 kg/ha) was 6.0, the “Preemergence herbicidal rating CHEAL” value ([11]; Rate 0.2500 kg/ha) was 9.0 and the “Preemergence herbicidal rating IPOHE” value ([12]; Rate 0.0620 kg/ha) was 0.0. For the same molecule, the “Preemergence herbicidal rating IPOHE” value ([12]; Rate 0.1250 kg/ha) was 4.0, the “Preemergence herbicidal rating IPOHE” value ([12]; Rate 0.2500 kg/ha) was 7.0 and the “Preemergence herbicidal rating ECHCG” value ([13]; Rate 0.0620 kg/ha) was 0.0. For the same molecule, the “Preemergence herbicidal rating ECHCG” value ([13]; Rate 0.1250 kg/ha) was 1.0, the “Preemergence herbicidal rating ECHCG” value ([13]; Rate 0.2500 kg/ha) was 6.0 and the “Preemergence herbicidal rating SETVI” value ([14]; Rate 0.0620 kg/ha) was 0.0. The “Preemergence herbicidal rating SETVI” value ([14]; Rate 0.1250 kg/ha) was 1.0, the “Preemergence herbicidal rating SETVI” value ([14]; Rate 0.2500 kg/ha) was 6.0 and the “Preemergence herbicidal rating GLXMAW” value ([15]; Rate 0.0620 kg/ha) was 0.0. The “Preemergence herbicidal rating GLXMAW” value ([15]; Rate 0.1250 kg/ha) was 1.0, the “Preemergence herbicidal rating GLXMAW” value ([15]; Rate 0.2500 kg/ha) was 4.0 and the “Preemergence herbicidal rating TRZAWR” value ([16]; Rate 0.0620 kg/ha) was 0.0. The “Preemergence herbicidal rating TRZAWR” value ([16]; Rate 0.1250 kg/ha) was 2.0, the “Preemergence herbicidal rating TRZAWR” value ([16]; Rate 0.2500 kg/ha) was 7.0 and the “Preemergence herbicidal rating ZEAMX” value ([17]; Rate 0.0620 kg/ha) was 1.0. The “Preemergence herbicidal rating ZEAMX” value ([17]; Rate 0.1250 kg/ha) was 2.0, the “Preemergence herbicidal rating ZEAMX” value ([17]; Rate 0.2500 kg/ha) was 3.0 and the “herbicidal rating, CYPIR” value ([18]; rate 0.0080 kg/ha) was 0.0. For the same molecule, the “herbicidal rating, CYPIR” value ([18]; rate 0.0320 kg/ha) was 7.0, the “herbicidal rating, CYPIR” value ([18]; rate 0.1250 kg/ha) was 9.0 and the “herbicidal rating, MOOVA” value ([19]; rate 0.0080 kg/ha) was 0.0. For the same molecule, the “herbicidal rating, MOOVA” value ([19]; rate 0.0320 kg/ha) was 7.0, the “herbicidal rating, MOOVA” value ([19]; rate 0.1250 kg/ha) was 9.0 and the “herbicidal rating, ORYSAT (rice tolerance)” value (“herbicidal rating, ORYSAT” below) ([20]; rate 0.0080 kg/ha) was 2.5. The “herbicidal rating, ORYSAT” value ([20]; rate 0.0320 kg/ha) was 4.5 and the “herbicidal rating, ORYSAT” value ([20]; rate 0.1250 kg/ha) was 6.0.

— patent publication US6706663B2, “Herbicidal 3-heterocyclic substituted benzisothiazole and benzisoxazole compounds” (Wyeth, priority 2000, dated 2004)
